In paper PMC4741878, “Specific inhibition by synthetic analogs of pyruvate reveals that the pyruvate dehydrogenase reaction is essential for metabolism and viability of glioblastoma cells” (Oncotarget, 2015) one finds Ki data, which are given here for two compounds.

In experiment [1] the target is T1, pyruvate dehydrogenase (PDH; E1 component of the pyruvate dehydrogenase complex, PDHC) (Rattus norvegicus, UniProt P26284+P49432).
T1 construct: gene Pdha1; native PDHC partially purified from rat heart or liver; PDHC in alamethicin-permeabilized rat skeletal muscle mitochondria; with PDHB (E1 beta subunit), within the PDHC with DLAT, DLD and PDHX
T1 sequence (P26284 30-390): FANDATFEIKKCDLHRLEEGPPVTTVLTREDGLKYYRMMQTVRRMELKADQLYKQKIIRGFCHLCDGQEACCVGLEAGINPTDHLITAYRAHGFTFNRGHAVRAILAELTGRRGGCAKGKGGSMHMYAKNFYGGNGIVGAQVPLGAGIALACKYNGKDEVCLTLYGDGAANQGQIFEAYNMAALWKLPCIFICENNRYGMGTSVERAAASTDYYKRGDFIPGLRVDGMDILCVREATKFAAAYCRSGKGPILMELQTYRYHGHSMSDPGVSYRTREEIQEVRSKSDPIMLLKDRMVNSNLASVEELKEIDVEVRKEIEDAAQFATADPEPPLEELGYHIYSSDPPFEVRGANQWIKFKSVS
T1 sequence (P49432 31-359): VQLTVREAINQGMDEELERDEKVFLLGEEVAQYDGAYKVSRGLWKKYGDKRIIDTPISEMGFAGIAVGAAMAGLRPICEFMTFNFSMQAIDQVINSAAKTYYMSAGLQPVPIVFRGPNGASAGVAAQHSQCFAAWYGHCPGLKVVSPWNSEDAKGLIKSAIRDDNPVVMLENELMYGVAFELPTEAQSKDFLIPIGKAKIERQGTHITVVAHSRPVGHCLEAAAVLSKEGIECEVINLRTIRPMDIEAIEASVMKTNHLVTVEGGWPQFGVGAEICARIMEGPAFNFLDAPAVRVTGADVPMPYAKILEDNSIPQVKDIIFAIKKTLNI
T1 sequence (P08461 78-632 partner): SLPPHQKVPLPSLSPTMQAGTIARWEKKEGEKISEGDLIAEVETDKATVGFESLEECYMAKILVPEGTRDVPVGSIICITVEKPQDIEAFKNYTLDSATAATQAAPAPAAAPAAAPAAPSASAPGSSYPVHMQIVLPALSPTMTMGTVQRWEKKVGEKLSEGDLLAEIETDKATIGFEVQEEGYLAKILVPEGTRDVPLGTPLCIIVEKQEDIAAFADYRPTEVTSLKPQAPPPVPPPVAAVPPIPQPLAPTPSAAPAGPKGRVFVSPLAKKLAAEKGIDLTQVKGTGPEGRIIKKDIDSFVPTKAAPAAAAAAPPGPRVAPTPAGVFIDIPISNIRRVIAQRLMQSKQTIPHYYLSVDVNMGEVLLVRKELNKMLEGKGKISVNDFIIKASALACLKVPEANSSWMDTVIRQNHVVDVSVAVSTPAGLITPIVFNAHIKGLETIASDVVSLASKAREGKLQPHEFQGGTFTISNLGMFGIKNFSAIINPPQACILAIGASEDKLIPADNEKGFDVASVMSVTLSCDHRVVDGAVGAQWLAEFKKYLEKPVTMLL
T1 sequence (Q6P6R2 36-509 partner): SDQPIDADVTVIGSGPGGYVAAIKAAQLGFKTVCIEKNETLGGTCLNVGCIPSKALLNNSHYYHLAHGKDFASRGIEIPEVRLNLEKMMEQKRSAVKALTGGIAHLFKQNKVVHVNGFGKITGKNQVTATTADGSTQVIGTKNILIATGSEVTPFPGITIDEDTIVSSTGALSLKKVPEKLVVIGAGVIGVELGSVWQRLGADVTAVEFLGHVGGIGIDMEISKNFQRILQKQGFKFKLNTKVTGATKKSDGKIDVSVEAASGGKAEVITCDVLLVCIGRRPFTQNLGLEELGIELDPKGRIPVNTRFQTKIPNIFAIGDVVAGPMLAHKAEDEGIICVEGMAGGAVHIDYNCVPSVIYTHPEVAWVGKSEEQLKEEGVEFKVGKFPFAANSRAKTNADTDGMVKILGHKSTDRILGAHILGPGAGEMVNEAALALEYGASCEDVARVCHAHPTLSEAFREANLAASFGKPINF
The experiment is described as follows: overall PDHC reaction by NADH production: Ki in permeabilized mitochondria; IC50 […] with isolated rat heart PDHC ([…] min preincubation). The experiment is classed as biochemical.

Experiment [2] has as its target T1, pyruvate dehydrogenase (PDH; E1 component of the pyruvate dehydrogenase complex, PDHC). The experiment is described as follows: overall PDHC reaction by NADH production: Ki in permeabilized mitochondria; IC50 […] with isolated rat heart PDHC at […] pyruvate. The experiment is classed as biochemical.

Usually Ki stands for a dissociation constant, usually derived from enzyme kinetics or from competition with a known ligand. Higher therefore signals weaker binding.

On to `CC(=O)[PH](=O)O` [AcPH, acetyl phosphinate], for which the affinity in experiment [1], expressed as Ki, was 0.1 µM. In experiment [2], `COP(=O)(O)C(C)=O` [AcPMe, methyl ester of acetyl phosphonate] displayed a Ki of 40 µM.
